Measured values as given in PMC11641184, “Coumarin Derivative Hybrids: Novel Dual Inhibitors Targeting Acetylcholinesterase and Monoamine Oxidases for Alzheimer’s Therapy” (International Journal of Molecular Sciences, 2024).

How the values were obtained:
human recombinant AChE = biological target: T1, human recombinant AChE (Homo sapiens, UniProt P22303); experiment: biochemical; settings: for inhibition at 10 µM: read-out: hAChE % inhibition at 10 μM ± SD, 10 μM inhibitor, human recombinant AChE, n = 3
T1 construct: purchased Aldrich (Milan, Italy)
Description: (§1) All enzymes and chemicals were purchased from Aldrich (Milan, Italy). Inhibition assays were performed in 96-well plates (Greiner Bio-One GmbH, Frickenhausen, Germany) using an Infinite M1000 plate reader (Tecan, Milan, Italy). Incubations were performed in triplicate, and final inhibition values were determined as mean ± SEM (n = 3).
The inhibition of human recombinant AChE was determined as already reported by applying Ellman’s spectrophotometric method.

hMAO-A = biological target: T2, hMAO-A (Homo sapiens, UniProt P21397); experiment: biochemical; settings: read-out: hMAO-A % inhibition at 10 μM ± SD; 10 μM inhibitor, human recombinant MAO-A, n = 3
T2 construct: purchased Aldrich (Milan, Italy)
T2 sequence (P21397 1-527): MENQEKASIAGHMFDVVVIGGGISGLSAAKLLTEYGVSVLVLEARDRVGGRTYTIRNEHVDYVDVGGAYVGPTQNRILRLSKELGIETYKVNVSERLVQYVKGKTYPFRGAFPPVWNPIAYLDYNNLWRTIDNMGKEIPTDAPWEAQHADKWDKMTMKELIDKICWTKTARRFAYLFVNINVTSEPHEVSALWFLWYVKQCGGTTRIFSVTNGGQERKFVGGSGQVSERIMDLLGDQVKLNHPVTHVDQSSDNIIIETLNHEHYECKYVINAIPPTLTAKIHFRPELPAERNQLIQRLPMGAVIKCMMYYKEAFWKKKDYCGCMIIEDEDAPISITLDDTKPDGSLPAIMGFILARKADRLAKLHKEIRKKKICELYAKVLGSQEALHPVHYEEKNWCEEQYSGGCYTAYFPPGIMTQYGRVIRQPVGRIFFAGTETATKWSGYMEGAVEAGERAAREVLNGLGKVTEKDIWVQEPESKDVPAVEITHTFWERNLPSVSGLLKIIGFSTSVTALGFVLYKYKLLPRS
Description: as §1
(§2) Incubations were set at 37 °C in phosphate buffer with a pH of 7.4 for 20 min before the addition of enzyme, and the fluorescence was measured after additional incubation of 30 min.

hMAO-B = biological target: T3, hMAO-B (Homo sapiens, UniProt P27338); experiment: biochemical; settings: human recombinant MAO-B; for IC50: kynuramine, 37 °C, pH 7.4, n = 3, read-out: hMAO-B IC50 ± SEM; for inhibition at 10 µM: read-out: hMAO-B % inhibition at 10 μM ± SD, 10 μM inhibitor, n = 3
T3 construct: purchased Aldrich (Milan, Italy)
T3 sequence (P27338 1-520): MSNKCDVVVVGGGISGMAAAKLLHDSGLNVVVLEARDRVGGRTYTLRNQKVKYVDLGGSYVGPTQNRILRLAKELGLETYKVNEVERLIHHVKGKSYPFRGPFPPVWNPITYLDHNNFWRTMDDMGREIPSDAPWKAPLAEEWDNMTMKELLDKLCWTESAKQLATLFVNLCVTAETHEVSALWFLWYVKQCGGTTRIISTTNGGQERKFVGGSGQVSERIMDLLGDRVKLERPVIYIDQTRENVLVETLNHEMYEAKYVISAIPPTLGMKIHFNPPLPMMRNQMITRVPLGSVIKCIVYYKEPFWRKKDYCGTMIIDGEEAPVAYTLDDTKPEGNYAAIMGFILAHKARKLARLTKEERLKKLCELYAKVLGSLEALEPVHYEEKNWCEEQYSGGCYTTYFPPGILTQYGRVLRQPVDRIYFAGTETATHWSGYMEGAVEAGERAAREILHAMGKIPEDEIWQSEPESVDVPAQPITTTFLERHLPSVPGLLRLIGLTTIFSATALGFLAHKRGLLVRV
Description: as §1, §2

[1] = in silico and in vitro studies; cited from earlier work
hAChE = system: hAChE; design: method as in PMID 10213168; settings: read-out: hAChE IC50 in vitro; cited from earlier work

T1 sequence (P22303 32-614): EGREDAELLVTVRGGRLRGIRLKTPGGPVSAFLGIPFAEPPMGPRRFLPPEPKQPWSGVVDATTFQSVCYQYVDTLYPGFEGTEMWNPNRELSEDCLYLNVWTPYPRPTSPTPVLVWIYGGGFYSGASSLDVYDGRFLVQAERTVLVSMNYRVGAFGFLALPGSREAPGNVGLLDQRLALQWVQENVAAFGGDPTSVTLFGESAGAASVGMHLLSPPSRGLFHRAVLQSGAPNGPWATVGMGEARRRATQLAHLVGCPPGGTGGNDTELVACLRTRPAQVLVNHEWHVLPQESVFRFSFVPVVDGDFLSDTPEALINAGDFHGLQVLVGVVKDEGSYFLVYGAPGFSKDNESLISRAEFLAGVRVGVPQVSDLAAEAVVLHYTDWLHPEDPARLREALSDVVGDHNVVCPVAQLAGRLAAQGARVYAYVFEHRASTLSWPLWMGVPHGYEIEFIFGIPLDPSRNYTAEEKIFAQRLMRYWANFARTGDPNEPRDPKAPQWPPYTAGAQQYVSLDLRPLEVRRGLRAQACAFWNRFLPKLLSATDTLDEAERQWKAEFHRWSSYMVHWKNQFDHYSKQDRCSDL

| SMILES | inhibition at 10 µM (human recombinant AChE) [%] | inhibition at 10 µM (hMAO-A) [%] | IC50 (hMAO-B) [nM] | inhibition at 10 µM (hMAO-B) [%] | pharmacokinetic properties [1] | IC50 (human recombinant AChE) [nM] | IC50 (hAChE) [nM] |
| --- | --- | --- | --- | --- | --- | --- | --- |
| COc1ccccc1N1CCN(CCCOc2cc(C)cc3oc(=O)cc(C)c23)CC1 [Compound 1, 4,7-dimethyl-5-{3-[4-(2-methoxyphenyl)piperazin-1-yl]propoxy}coumarin] | 61 ± 1 | 44 ± 4 | 2180 ± 480 |  |  |  |  |
| COc1ccccc1N1CCN(CCCCOc2cc(C)cc3oc(=O)cc(C)c23)CC1 [Compound 2, 4,7-dimethyl-5-[4-(4-(2-methoxyphenyl)piperazin-1-yl)butoxy]coumarin] | 61 ± 4 | 19 ± 1 |  | 33 ± 2 |  |  |  |
| COc1cccc(N2CCN(CCCOc3cc(C)cc4oc(=O)cc(C)c34)CC2)c1 [Compound 3, 4,7-dimethyl-5-[3-(4-(3-methoxyphenyl)piperazin-1-yl)propoxy]coumarin] | 53 ± 2 | 39 ± 5 | 1880 ± 450 |  | excellent pharmacokinetic properties |  |  |
| COc1cccc(N2CCN(CCCCOc3cc(C)cc4oc(=O)cc(C)c34)CC2)c1 [Compound 4, 4,7-dimethyl-5-[4-(4-(3-methoxyphenyl)piperazin-1-yl)butoxy]coumarin] | 56 ± 1 | 38 ± 4 | 3180 ± 630 |  |  |  |  |
| COc1ccccc1N1CCN(CCCOc2c(C(C)=O)c(C)cc3oc(=O)cc(C)c23)CC1 [Compound 5, 6-acetyl-4,7-dimethyl-5-[3-(4-(2-methoxyphenyl)piperazin-1-yl)propoxy]coumarin] | 50 ± 6 | 22 ± 3 |  | 34 ± 2 |  |  |  |
| COc1ccccc1N1CCN(CCCCOc2c(C(C)=O)c(C)cc3oc(=O)cc(C)c23)CC1 [Compound 6, 6-acetyl-4,7-dimethyl-5-[4-(4-(2-methoxyphenyl)piperazin-1-yl)butoxy]coumarin] | 48 ± 1 | 30 ± 5 |  | 43 ± 3 |  |  |  |
| COc1cccc(N2CCN(CCCOc3c(C(C)=O)c(C)cc4oc(=O)cc(C)c34)CC2)c1 [Compound 7, 6-acetyl-4,7-dimethyl-5-[3-(4-(3-methoxyphenyl)piperazin-1-yl)propoxy]coumarin] | 46 ± 3 | 39 ± 3 |  | 35 ± 3 |  |  |  |
| COc1cccc(N2CCN(CCCCOc3c(C(C)=O)c(C)cc4oc(=O)cc(C)c34)CC2)c1 [Compound 8, 6-acetyl-4,7-dimethyl-5-[4-(4-(3-methoxyphenyl)piperazin-1-yl)butoxy]coumarin] | 54 ± 8 | 55 ± 2 |  | 26 ± 2 |  |  |  |
| COc1ccccc1N1CCN(CCCOc2ccc3c(C)cc(=O)oc3c2C(C)=O)CC1 [Compound 9, 8-acetyl-7-{3-[4-(2-methoxyphenyl)piperazin-1-yl]propoxy}-4-methylchromen-2-one] | 59 ± 7 | 32 ± 4 | 4760 ± 340 |  |  |  |  |
| COc1ccccc1N1CCN(CCCCOc2ccc3c(C)cc(=O)oc3c2C(C)=O)CC1 [Compound 10, 8-acetyl-7-{4-[4-(2-methoxyphenyl)piperazin-1-yl]butoxy}-4-methylchromen-2-one] |  | 52 ± 4 |  | 24 ± 1 | excellent pharmacokinetic properties | 1520 ± 660 |  |
| COc1cc2oc(=O)c(C)c(C)c2cc1OCCCN1CCN(c2ccccc2OC)CC1 [Ensaculin] |  |  |  |  |  |  | 360 |
